# Results: patent US20260200964A1, “MONOSACCARIDES, PHARMACEUTICAL COMPOSITIONS, AND DIAGNOSTIC AND THERAPEUTIC APPLICATIONS” (Surio Therapeutics Co., LTD., priority 2022, published 2026)
# Key:
# [1] = Compound stability in a biological matrix (human plasma); assay type: in vitro ADME; settings: 10 μg/mL, 37° C., LC-MS/MS
# Procedure: (§1) A compound was dissolved in DMSO as a 1 mg/mL stock solution. An ACN solution of the compound at 100 μg/mL was prepared from the stock solution, 10 μL of which was added to a biological matrix (90 μL) to the final concentration of 10 μg/mL for the compound. The mixtures of the compound in a biological matrix were incubated at 37° C. for 0, 0.5, 1, or 4 h. At each time point, ACN (900 μL) was added to a mixture. After the mixture was centrifuged at 15,000 rpm for 5 min, the supernatant was mixed with the same volume of H2O (1% TFA) and then analyzed by LC-MS/MS. The results are summarized in Table 3, wherein Cbz-AAM is (2R,3S,4R,5S)-6-((4-((S)-6-acetamido-2-(((benzyloxy)carbonyl)amino)hexan-amido)phenyl)(phenyl)methoxy)-2-(acetoxymethyl)-5-(2-azidoacetamido)tetrahydro-2H-pyran-3,4-diyl diacetate.
# [2] = Compound stability in a biological matrix (mouse plasma); assay type: in vitro ADME; settings: 10 μg/mL, 37° C., LC-MS/MS
# Procedure: as §1
# A549 cells = assay: Flow cytometry analysis of cell labeling (azido labeling efficiency); assay type: cell-based; settings: Homo sapiens; A549 cells (lung); azido compound 25 μM, 48 h; mean fluorescence of live cells compared with PBS negative control
# Procedure: Cells (2.0×10^6 cells/mL, 2 mL) were seeded in a 6-well culture plate and attached at 37° C. overnight. After washed thrice with PBS, the cells were incubated with an azido compound (25 μM) at 37° C. for 48 h. After washed thrice with PBS, the cells were incubated with DBCO-biotin (50 μM) in 500 μL serum free DMEM at 37° C. for 1 h. The cells were washed thrice with PBS and then incubated with streptavidin-Cy5 (5 μg/mL) in 500 μL serum free DMEM at 37° C. for 1 h. The cells were washed thrice with PBS, followed by addition of 300 μL 1×trypsin/EDTA for digestion. The lifted cells were transferred to a 1.5 mL EP tube, centrifuge at 1,000 rpm for 3 min, and washed with PBS once. Finally, 500 μL PBS containing 4% PFA was added to the cell pellet to fix the cells. The cell suspension was transferred to a flow tube and mixed with 10 μL of a PI working solution (50 μg/mL) at room temperature for 30 min before being subjected to flow cytometry.
# Flow cytometry was used to characterize the labeling efficiency of a compound provided herein. After cells were labeled with an azido group, DBCO-biotin was added to specifically react with the azido group. Avidin-Cy5 was added bind to the cell surface biotin for a flow cytometry analysis. Dead cells were stained with PI and excluded from the analysis. Results were presented as the mean fluorescence of live cells, compared with PBS as a negative control and Ac4ManNAz (AAM) as a positive control, Ac4ManNAz (AAM, CAS: 361154-30-5).
Structure (SMILES),Compound Remaining (%) Human 1 h [1],Compound Remaining (%) Human 4 h [1],Compound Remaining (%) Mouse 1 h [2],activity at 25 µM (A549 cells),Compound Remaining (%) Mouse 4 h [2]
"CC(=O)NCCCC[C@H](NC(=O)OCc1ccccc1)C(=O)Nc1ccc(C(OC2O[C@H](COC(C)=O)[C@@H](OC(C)=O)[C@H](OC(C)=O)[C@@H]2NC(=O)CN=[N+]=[N-])c2ccccc2)cc1 (stereo partly drawn) [Cbz-AAM, (2R,3S,4R,5S)-6-((4-((S)-6-acetamido-2-(((benzyloxy)carbonyl)amino)hexan-amido)phenyl)(phenyl)methoxy)-2-(acetoxymethyl)-5-(2-azidoacetamido)tetrahydro-2H-pyran-3,4-diyl diacetate, reference compound]",100%,100%,16%,–,–
"CC(=O)NCCCC[C@H](NC(=O)OCc1ccccc1)C(=O)Nc1ccc(C(OC2OC(COC(C)=O)C(OC(C)=O)C(OC(C)=O)C2NC(=O)CN=[N+]=[N-])c2cnc[nH]2)cc1 (stereo partly drawn) [Compound A1, 1-O-(1-(imidazol-4-yl)-1-(4-(6-acetamido-2(S)-(benzyloxycarbonylamino)-hexanamido)phenyl)methyl)-2-(2-azidoacetylamino)-2-deoxy-3,4,6-tri-O-acetyl-D-mannopyranoside]",94%,70%,91%,103%,72%
"CC(=O)NCCCC[C@H](NC(=O)OCc1ccccc1)C(=O)Nc1ccc(C(OC2OC(COC(C)=O)C(OC(C)=O)C(OC(C)=O)C2NC(=O)CN=[N+]=[N-])c2cn(C)cn2)cc1 (stereo partly drawn) [Compound A2, 1-O-(1-(1-methylimidazol-4-yl)-1-(4-(6-acetamido-2(S)-(benzyloxycarbonylamino)-hexanamido)phenyl)methyl)-2-(2-azidoacetylamino)-2-deoxy-3,4,6-tri-O-acetyl-D-mannopyranoside]",100%,90%,98%,250%,87%
"CC(=O)NCCCC[C@H](NC(=O)OCc1ccccc1)C(=O)Nc1ccc(C(OC2OC(COC(C)=O)C(OC(C)=O)C(OC(C)=O)C2NC(=O)CN=[N+]=[N-])c2cncs2)cc1 (stereo partly drawn) [Compound A3, 1-O-(1-(thiazol-5-yl)-1-(4-(6-acetamido-2(S)-(benzyloxycarbonylamino)-hexanamido)phenyl)methyl)-2-(2-azidoacetylamino)-2-deoxy-3,4,6-tri-O-acetyl-D-mannopyranoside]",–,–,72%,–,19%
"CC(=O)NCCCC[C@H](NC(=O)OCc1ccccc1)C(=O)Nc1ccc(C(OC2OC(COC(C)=O)C(OC(C)=O)C(OC(C)=O)C2NC(=O)CN=[N+]=[N-])c2cccs2)cc1 (stereo partly drawn) [Compound A4, 1-O-(1-(thien-2-yl)-1-(4-(6-acetamido-2(S)-(benzyloxycarbonylamino)-hexanamido)phenyl)methyl)-2-(2-azidoacetylamino)-2-deoxy-3,4,6-tri-O-acetyl-D-mannopyranoside]",2%,1%,3%,83%,3%
"CC(=O)NCCCC[C@H](NC(=O)OCc1ccccc1)C(=O)Nc1ccc(C(OC2OC(COC(C)=O)C(OC(C)=O)C(OC(C)=O)C2NC(=O)CN=[N+]=[N-])c2ccsc2)cc1 (stereo partly drawn) [Compound A5, 1-O-(1-(Thien-3-yl)-1-(4-(6-acetamido-2(S)-(benzyloxycarbonylamino)hexan-amido)phenyl)methyl)-2-(2-azidoacetylamino)-2-deoxy-3,4,6-tri-O-acetyl-D-mannopyranoside]",2%,1%,2%,130%,2%
CC(=O)NCCCC[C@H](NC(=O)OCc1ccccc1)C(=O)Nc1ccc(C(OC2OC(COC(C)=O)C(OC(C)=O)C(OC(C)=O)C2NC(=O)CN=[N+]=[N-])c2cccnc2)cc1 (stereo partly shown) [Compound A6],88%,65%,4%,–,0.6%
"CC(=O)NCCCC[C@H](NC(=O)OCc1ccccc1)C(=O)Nc1ccc(C(OC2OC(COC(C)=O)C(OC(C)=O)C(OC(C)=O)C2NC(=O)CN=[N+]=[N-])c2ccncc2)cc1 (stereo partly drawn) [Compound A7, 1-O-(1-(Pyridin-4-yl)-1-(4-(6-acetamido-2(S)-(benzyloxycarbonylamino)hexan-amido)phenyl)methyl)-2-(2-azidoacetylamino)-2-deoxy-3,4,6-tri-O-acetyl-D-mannopyranoside]",41%,4%,29%,–,6%
"CC(=O)NCCCC[C@H](NC(=O)OCc1ccccc1)C(=O)Nc1ccc(C(OC2OC(COC(=O)C3CCOCC3)C(OC(C)=O)C(OC(C)=O)C2NC(=O)CN=[N+]=[N-])c2ccnn2C)cc1 (stereo partly drawn) [Compound A9, 1-O-(1-(2-methylpyrazol-3-yl)-1-(4-(6-acetamido-2(S)-(benzyloxycarbonyl-amino)hexanamido)phenyl)methyl)-2-(2-azidoacetylamino)-2-deoxy-3,4-di-O-acetyl-6-O-tetrahydropyran-4-ylcarbonyl-D-mannopyranoside]",63%,16%,84%,197%,27%
"CC(=O)NCCCC[C@H](NC(=O)OCc1ccccc1)C(=O)Nc1ccc(C(OC2OC(COC(=O)C3CCN(C)CC3)C(OC(C)=O)C(OC(C)=O)C2NC(=O)CN=[N+]=[N-])c2ccnn2C)cc1 (stereo partly drawn) [Compound A10, 1-O-(1-(2-Methylpyrazol-3-yl)-1-(4-(6-acetamido-2(S)-(benzyloxycarbonyl-amino)hexanamido)phenyl)methyl)-2-(2-azidoacetylamino)-2-deoxy-3,4-di-O-acetyl-6-O-(1-methylpiperidin-4-yl)carbonyl-D-mannopyranoside]",62%,5%,81%,166%,21%
"CC(=O)NCCCC[C@H](NC(=O)OCc1ccccc1)C(=O)Nc1ccc(C(OC2OC(COC(=O)CN3CCCC3)C(OC(C)=O)C(OC(C)=O)C2NC(=O)CN=[N+]=[N-])c2ccnn2C)cc1 (stereo partly drawn) [Compound A11, 1-O-(1-(2-Methylpyrazol-3-yl)-1-(4-(6-acetamido-2(S)-(benzyloxycarbonyl-amino)hexanamido)phenyl)methyl)-2-(2-azidoacetylamino)-2-deoxy-3,4-di-O-acetyl-6-O-(pyrrolin-1-ylacetyl)-D-mannopyranoside]",–,–,38%,–,3%
"CC(=O)NCCCC[C@H](NC(=O)OCc1ccccc1)C(=O)Nc1ccc(C(OC2OC(COC(=O)Cc3cccnc3)C(OC(C)=O)C(OC(C)=O)C2NC(=O)CN=[N+]=[N-])c2ccnn2C)cc1 (stereo partly drawn) [Compound A12, 1-O-(1-(2-Methylpyrazol-3-yl)-1-(4-(6-acetamido-2(S)-(benzyloxycarbonyl-amino)hexanamido)phenyl)methyl)-2-(2-azidoacetylamino)-2-deoxy-3,4-di-O-acetyl-6-O-(pyridin-3-ylacetyl)-D-mannopyranoside]",64%,8%,82%,165%,27%
"CC(=O)NCCCC[C@H](NC(=O)OCc1ccccc1)C(=O)Nc1ccc(C(OC2OC(COC(=O)c3cccnc3)C(OC(C)=O)C(OC(C)=O)C2NC(=O)CN=[N+]=[N-])c2ccnn2C)cc1 (stereo partly drawn) [Compound A13, 1-O-(1-(2-Methylpyrazol-3-yl)-1-(4-(6-acetamido-2(S)-(benzyloxycarbonyl-amino)hexanamido)phenyl)methyl)-2-(2-azidoacetylamino)-2-deoxy-3,4-di-O-acetyl-6-O-(pyridin-3-ylcarbonyl)-D-mannopyranoside]",50%,12%,76%,180%,22%
